We go through 1 compound from US11236354B2, “Glyphosate-n-acetyltransferase (GLYAT) sequences and methods of use” (PIONEER HI-BRED INTERNATIONAL, INC., priority 2013, dated 2022).

The target in the assay is GLYAT (glyphosate-N-acetyltransferase), parent, SEQ ID NO:1 (Bacillus licheniformis, UniProt Q65LG7, E119R/E14D/E65Q/E67K/E68K/G37R/G38S/I132T/I135V/I15L/I19V/I53V/I91V/K101R/K144R/K58Q/L105M/L106I/L145I/L26I/L36T/L97I/M75V/R47G/R92K/T33S/T89S/V114A/Y130F/Y31F/Y45F). Kind of assay: Substrate saturation kinetic analysis of purified GLYAT.

Each structure is given as a SMILES string. Values joined by “and” are separate entries in the source; they are usually repeats but may differ in a detail not shown here. Equal values may be shown once.

Sequence of GLYAT (glyphosate-N-acetyltransferase), parent, SEQ ID NO:1 (Q65LG7 entry or part of it with the stated changes): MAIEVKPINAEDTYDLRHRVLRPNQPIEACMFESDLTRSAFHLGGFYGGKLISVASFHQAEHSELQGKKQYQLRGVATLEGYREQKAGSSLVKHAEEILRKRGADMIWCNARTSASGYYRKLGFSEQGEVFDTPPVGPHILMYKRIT

Consider `N[C@@H](CC(=O)O)C(=O)O` [aspartate], for which the kcat/KM with aspartate (25 mM Hepes, pH 7.0) was 228 M⁻¹ s⁻¹. Also, the “kcat/Km asp, % glyph” value (Table 5 and text, specificity (kcat/KM asp/kcat/KM glyph), listed as asp) is 1.3% and 1.27%. For the same compound, the “Asp as % of glyph (kcat/KM asp / kcat/KM glyph)” value (pH 7.0) is 1.273%.
